Measurements reported in PubChem BioAssay AID248 (DTP/NCI, 2004).
“And” between values parts separate entries of the source, which are not always exact repeats. Equal entries are not always repeated. Toxic doses and inconclusive results are not listed. No stated cut-off is given here; in the data, active means T/C of 150% or more; inactive means T/C below 125%.

Test system: L1210 leukemia ip in BDF1 mice, survival T/C
Experiment: NCI In Vivo Anticancer Drug Screen. Data for tumor model L1210 Leukemia (intraperitoneal) in B6D2F1 (BDF1) mice
Conditions: endpoint: mean survival time, higher = longer survival
Summary of the method: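 In this screen, tumor-bearing mice given compound are compared to those given vehicle, and their survival values are reported as a treated-to-control quotient.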

[1] = dose: 100.0 mg/kg/injection, schedule: Q04DX002 (ip), vehicle: saline with Tween-80
[2] = dose: 200.0 mg/kg/injection, schedule: Q04DX002 (ip), vehicle: saline with Tween-80
[3] = dose: 400.0 mg/kg/injection, schedule: Q04DX002 (ip), vehicle: saline with Tween-80
[4] = dose: 50.0 mg/kg/injection, schedule: Q01DX009 (ip), vehicle: saline with Tween-80
[5] = dose: 100.0 mg/kg/injection, schedule: Q01DX009 (ip), vehicle: saline with Tween-80
[6] = dose: 200.0 mg/kg/injection, schedule: Q01DX009 (ip), vehicle: saline with Tween-80
[7] = dose: 100.0 mg/kg/injection, schedule: Q01DX001 (ip), vehicle: carboxymethylcellulose (CMC)
[8] = dose: 200.0 mg/kg/injection, schedule: Q01DX001 (ip), vehicle: carboxymethylcellulose (CMC)
[9] = dose: 400.0 mg/kg/injection, schedule: Q01DX001 (ip), vehicle: carboxymethylcellulose (CMC)
[10] = dose: 100.0 mg/kg/injection, schedule: Q04DX003 (ip), vehicle: saline with Tween-80
[11] = dose: 200.0 mg/kg/injection, schedule: Q04DX003 (ip), vehicle: saline with Tween-80
[12] = dose: 400.0 mg/kg/injection, schedule: Q04DX003 (ip), vehicle: saline with Tween-80
[13] = dose: 100.0 mg/kg/injection, schedule: Q01DX009 (ip), vehicle: saline
[14] = dose: 100.0 mg/kg/injection, schedule: Q04DX003 (ip), vehicle: saline
[15] = dose: 200.0 mg/kg/injection, schedule: Q01DX009 (ip), vehicle: saline
[16] = dose: 200.0 mg/kg/injection, schedule: Q04DX003 (ip), vehicle: saline
[17] = dose: 400.0 mg/kg/injection, schedule: Q01DX009 (ip), vehicle: saline
[18] = dose: 100.0 mg/kg/injection, schedule: Q04DX003 (ip), vehicle: Klucel (hydroxypropylcellulose) (HPC)
[19] = dose: 200.0 mg/kg/injection, schedule: Q04DX003 (ip), vehicle: Klucel (hydroxypropylcellulose) (HPC)
[20] = dose: 100.0 mg/kg/injection, schedule: Q01DX001 (ip), vehicle: saline with Tween-80
[21] = dose: 200.0 mg/kg/injection, schedule: Q01DX001 (ip), vehicle: saline with Tween-80
[22] = dose: 400.0 mg/kg/injection, schedule: Q01DX009 (ip), vehicle: saline with Tween-80
[23] = dose: 400.0 mg/kg/injection, schedule: Q04DX003 (ip), vehicle: Klucel (hydroxypropylcellulose) (HPC)
[24] = dose: 400.0 mg/kg/injection, schedule: Q01DX001 (ip), vehicle: saline with Tween-80
[25] = dose: 50.0 mg/kg/injection, schedule: Q01DX001 (ip), vehicle: carboxymethylcellulose (CMC)
[26] = dose: 100.0 mg/kg/injection, schedule: Q01DX009 (ip), vehicle: Klucel (hydroxypropylcellulose) (HPC)
[27] = dose: 200.0 mg/kg/injection, schedule: Q01DX009 (ip), vehicle: Klucel (hydroxypropylcellulose) (HPC)
[28] = dose: 400.0 mg/kg/injection, schedule: Q01DX009 (ip), vehicle: Klucel (hydroxypropylcellulose) (HPC)

Measured: T/C

CC1CCN(P(c2ccccc2)N2CCC(C)CC2)CC1
inactive: dose: 100.0 mg/kg/injection, schedule: Q04DX002 (ip), vehicle: Klucel (hydroxypropylcellulose) (HPC) 97 % of control | dose: 200.0 mg/kg/injection, schedule: Q04DX002 (ip), vehicle: Klucel (hydroxypropylcellulose) (HPC) 97 % of control | dose: 400.0 mg/kg/injection, schedule: Q04DX002 (ip), vehicle: Klucel (hydroxypropylcellulose) (HPC) 100 % of control

O=S(=O)(CCCCl)Nc1ccccn1
inactive: [1] 100 % of control | [2] 93 % of control | [3] 93 % of control

CC(=O)c1c(C)cc(C)c(CC(=O)O)c1C
inactive: dose: 75.0 mg/kg/injection, schedule: Q01DX009 (ip), vehicle: Klucel (hydroxypropylcellulose) (HPC) 104 % of control | dose: 150.0 mg/kg/injection, schedule: Q01DX009 (ip), vehicle: Klucel (hydroxypropylcellulose) (HPC) 97 % of control | dose: 300.0 mg/kg/injection, schedule: Q01DX009 (ip), vehicle: Klucel (hydroxypropylcellulose) (HPC) 93 % of control

COc1ccc2c(c1OC)CCCCC2=O
inactive: [4] 102 % of control | [5] 98 % of control | [6] 91 % of control

COc1ccccc1-n1c(O)c(N=Nc2ccc(Cl)cc2)c(=O)n(-c2ccc(C)cc2)c1=S
inactive: dose: 100.0 mg/kg/injection, schedule: Q01DX001 (ip), vehicle: Klucel (hydroxypropylcellulose) (HPC) 98 % of control | dose: 200.0 mg/kg/injection, schedule: Q01DX001 (ip), vehicle: Klucel (hydroxypropylcellulose) (HPC) 96 % of control | dose: 400.0 mg/kg/injection, schedule: Q01DX001 (ip), vehicle: Klucel (hydroxypropylcellulose) (HPC) 105 % of control

CC(O)CN1c2ccccc2Sc2ccc(Cl)cc21 (stereo unspecified)
inactive: [7] 97 % of control | [8] 92 % of control | [9] 95 % of control

Cc1nc2cccc3ccc4c5ccccc5cc1c4c32
inactive: [10] 92 % of control | [11] 92 % of control | [12] 87 % of control

CN(C)c1cc(F)c(C=O)cc1[N+](=O)[O-]
inactive: [13] 100 % of control | [14] 113 % of control | [15] 105 % of control | [16] 105 % of control | [17] 100 % of control | dose: 400.0 mg/kg/injection, schedule: Q04DX003 (ip), vehicle: saline 98 % of control

O=C(NNc1ccccc1)c1ccc(Cl)cc1
inactive: dose: 100.0 mg/kg/injection, schedule: Q04DX002 (ip), vehicle: gum acacia 112 % of control | dose: 200.0 mg/kg/injection, schedule: Q04DX002 (ip), vehicle: gum acacia 87 % of control | dose: 400.0 mg/kg/injection, schedule: Q04DX002 (ip), vehicle: gum acacia 102 % of control

CCOC(=O)NC(C)(C)CN(C(=O)OCC)C(C)(C)CO
inactive: [14] 104 % of control | [16] 104 % of control

Cc1ccc(S(=O)(=O)c2ccc(F)cc2)cc1
inactive: [10] 104 % of control | [11] 95 % of control | [12] 97 % of control

CCOC(=O)c1cnc(C)nc1Nc1ccccc1F
inactive: [18] 105 % of control | [19] 104 % of control

CC(=O)Nc1nc(SCc2ccccc2)c2c(no[n+]2[O-])n1
inactive: [1] 97 % of control | [2] 116 % of control

CC1=C(Cl)CS(=O)(=O)C1
inactive: [20] 104 % of control | [21] 100 % of control

CC1C(=O)CC(C)(C)CC1=O
inactive: [5] 105 % of control | [6] 109 % of control | [22] 104 % of control

O=C(Cn1cnc2c(=S)nc[nH]c21)Oc1ccc([N+](=O)[O-])cc1
inactive: [5] 98 % of control | [18] 96 % of control | [19] 105 % of control | [23] 94 % of control

O=C(COc1cccc(Cl)c1)NCc1ccc([N+](=O)[O-])cc1
inactive: [20] 96 % of control | [5] 94 % of control | [21] 93 % of control | [6] 100 % of control | [24] 101 % of control | [22] 97 % of control

O=C(O)/C(Br)=C/C(=O)c1ccccc1
inactive: dose: 75.0 mg/kg/injection, schedule: Q01DX001 (ip), vehicle: steriod suspending solution 106 % of control | dose: 300.0 mg/kg/injection, schedule: Q01DX001 (ip), vehicle: steriod suspending solution 109 % of control

Nc1ncc2c(n1)SCC2
inactive: dose: 5.0 mg/kg/injection, schedule: Q01DX001 (ip), vehicle: saline 104 % of control | dose: 10.0 mg/kg/injection, schedule: Q01DX001 (ip), vehicle: saline 104 % of control | dose: 20.0 mg/kg/injection, schedule: Q01DX001 (ip), vehicle: saline 102 % of control | dose: 40.0 mg/kg/injection, schedule: Q01DX001 (ip), vehicle: saline 102 % of control | dose: 80.0 mg/kg/injection, schedule: Q01DX001 (ip), vehicle: saline 116 % of control

CNC(=O)C1=Cc2cc(Cl)ccc2OC1
inactive: dose: 75.0 mg/kg/injection, schedule: Q04DX003 (ip), vehicle: saline with Tween-80 98 % of control | dose: 150.0 mg/kg/injection, schedule: Q04DX003 (ip), vehicle: saline with Tween-80 92 % of control | dose: 300.0 mg/kg/injection, schedule: Q04DX003 (ip), vehicle: saline with Tween-80 95 % of control

CCOC(=O)c1oc2cc(O)cc(C)c2c1C
inactive: [25] 97 % of control | [7] 100 % of control | [8] 94 % of control | [9] 94 % of control

O=[N+]([O-])c1ccc(S(=O)(=O)C2CCCCC2Cl)c([N+](=O)[O-])c1 (stereo unspecified)
inactive: [25] 95 % of control | [7] 111 % of control | [8] 106 % of control | [9] 101 % of control

O=[N+]([O-])c1ccc(/C=C/c2ccccc2Cl)cc1
inactive: [26] 97 % of control | [18] 109 % of control | [27] 97 % of control | [19] 104 % of control | [28] 101 % of control | [23] 107 % of control

CN1CCC(=C(C#N)c2ccccc2)CC1
inactive: dose: 25.0 mg/kg/injection, schedule: Q04DX003 (ip), vehicle: saline 97 % of control | dose: 50.0 mg/kg/injection, schedule: Q04DX003 (ip), vehicle: saline 97 % of control

CCCC1CCC(=C2C(=O)CCC2=O)O1 (stereo unspecified)
inactive: dose: 3.13 mg/kg/injection, schedule: Q01DX009 (ip), vehicle: saline 95 % of control | dose: 6.25 mg/kg/injection, schedule: Q01DX009 (ip), vehicle: saline 98 % of control | dose: 12.5 mg/kg/injection, schedule: Q01DX009 (ip), vehicle: saline 106 % of control | dose: 25.0 mg/kg/injection, schedule: Q01DX009 (ip), vehicle: saline 104 % of control

C[n+]1ccc(Nc2ccc(NC(=O)c3ccc(N)cc3[N+](=O)[O-])cc2)cc1
inactive: dose: 25.0 mg/kg/injection, schedule: Q01DX001 (ip), vehicle: saline with Tween-80 93 % of control and 107 % of control | dose: 50.0 mg/kg/injection, schedule: Q01DX001 (ip), vehicle: saline with Tween-80 97 % of control | [1] 108 % of control and 117 % of control | [2] 94 % of control and 101 % of control | [24] 104 % of control and 91 % of control | [3] 103 % of control and 114 % of control

CCCCCC(Oc1ccc(Cl)cc1)C(=O)OCC (stereo unspecified)
inactive: [13] 101 % of control | [15] 90 % of control | [17] 114 % of control

CC(=O)Nc1ccc(C#N)c2ccccc12
inactive: [26] 97 % of control | [18] 102 % of control | [27] 98 % of control | [19] 102 % of control | [28] 103 % of control | [23] 97 % of control

CC(C)(CCl)COS(=O)(=O)c1ccc(Br)cc1
inactive: [4] 90 % of control | [5] 90 % of control
